Test results as given in US7879862B2, “Pyrazolo[1,5-alpha]pyrimidinyl derivatives useful as corticotropin-releasing factor (CRF) receptor antagonists” (SmithKline Beecham (Cork) Limited, priority 2004, dated 2011).
Where two headings read alike, the source gives them in different places.

Molecular target: T1, human CRF receptors (Homo sapiens, UniProt P34998)
T1 construct: expressed in transfected cells
T1 sequence (P34998 24-415): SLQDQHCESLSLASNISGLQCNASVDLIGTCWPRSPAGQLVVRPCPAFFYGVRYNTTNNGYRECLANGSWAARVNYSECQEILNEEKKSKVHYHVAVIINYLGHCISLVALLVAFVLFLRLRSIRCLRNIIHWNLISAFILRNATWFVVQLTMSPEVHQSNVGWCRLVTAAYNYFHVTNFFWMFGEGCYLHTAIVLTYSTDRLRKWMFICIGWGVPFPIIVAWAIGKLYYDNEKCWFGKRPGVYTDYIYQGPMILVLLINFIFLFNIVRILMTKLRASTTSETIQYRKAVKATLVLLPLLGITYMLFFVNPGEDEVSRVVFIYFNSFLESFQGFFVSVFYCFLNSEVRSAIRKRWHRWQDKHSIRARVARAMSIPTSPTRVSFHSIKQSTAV
Experiment: CRF receptor binding activity (radioligand displacement, Example 25)
Text: The effectiveness of a compound as a CRF receptor antagonist may be determined by various assay methods. […] CRF receptor affinity may be determined by binding studies that measure the ability of a compound to inhibit the binding of a radiolabeled CRF (e.g., [^125I]tyrosine-CFR) to its receptor (e.g., receptors prepared from rat cerebral cortex membranes). The radioligand binding assay described by DeSouza et al. (supra, 1987) provides an assay for determining a compound's affinity for the CRF receptor.
[formula] where L=radioligand and KD=affinity of radioligand for receptor (Cheng and Prusoff, Biochem. Pharmacol. 22:3099, 1973).
By utilizing radiolabeled CRF ligands, the assay may be used to evaluate the binding activity of the compounds of the present invention with any CRF receptor subtype.
Briefly, the binding assay involves the displacement of a radiolabeled CRF ligand from the CRF receptor. More specifically, the binding assay is performed in 96-well assay plates using 1-10 μg cell membranes from cells stably transfected with human CRF receptors. […] The mixture is incubated for 2 hours at 22° C. followed by separation of the bound and free radioligand by rapid filtration over glass fiber filters. Following three washes, the filters are dried and radioactivity (Auger electrons from ^125I) is counted using a scintillation counter. All radioligand binding data may be analyzed using the non-linear least-squares curve-fitting programs Prism (GraphPad Software Inc) or XLfit (ID Business Solutions Ltd).

[1] = displacement of [125I] tyrosine-sauvagine from membranes of cells stably transfected with human CRF receptors, less than 0.10 μM (i.e., 100 nM), read-out: Ki (CRF receptor binding affinity)

SMILES	Ki [1] [nM]	Ki [nM]
CCC(Nc1cc(C)nc2c(-c3ccc(OC)cc3C)c(C)nn12)c1nnc(C)o1 (stereo not shown) [Example 22-1, [3-(4-Methoxy-2-methyl-phenyl)-2,5-dimethyl-pyrazolo[1,5-a]pyrimidin-7-yl]-[1-(5-methyl-[1,3,4]oxadiazol-2-yl)-propyl]-amine]		< 100
CCC(Nc1cc(C)nc2c(-c3ccc(OC)cc3Cl)c(C)nn12)c1nc(C)no1 (stereo not shown) [Example 24-1, [3-(2-Chloro-4-methoxy-phenyl)-2,5-dimethyl-pyrazolo[1,5-a]pyrimidin-7-yl]-[1-(3-methyl-[1,2,4]oxadiazol-5-yl)-propyl]-amine]	< 100	
CCN(Cc1nc(C)no1)c1cc(C)nc2c(-c3ccc(OC)cc3C)c(C)nn12 [Example 20-1, Ethyl-[3-(4-methoxy-2-methyl-phenyl)-2,5-dimethyl-pyrazolo[1,5-a]pyrimidin-7-yl]-(3-methyl-[1,2,4]oxadiazol-5-ylmethyl)-amine]		< 100
COc1ccc(-c2c(C)nn3c(N[C@H](C)Cc4noc(C)n4)cc(C)nc23)c(C)c1 [Example 17-1, [3-(4-Methoxy-2-methyl-phenyl)-2,5-dimethyl-pyrazolo[1,5-a]pyrimidin-7-yl]-[(R)-1-methyl-2-(5-methyl-[1,2,4]oxadiazol-3-yl)-ethyl]-amine]		< 100
CC[C@H](Nc1cc(C)nc2c(-c3ccc(OC)cc3Cl)c(C)nn12)c1nc(C)no1 [Example 14-4, [3-(2-Chloro-4-methoxy-phenyl)-2,5-dimethyl-pyrazolo[1,5-a]pyrimidin-7-yl]-[(S)-1-(3-methyl-[1,2,4]oxadiazol-5-yl)-propyl]-amine]	< 100	
CCC(Nc1cc(C)nc2c(-c3ccc(Cl)cc3OC)c(C)nn12)c1nc(C)no1 (stereo not shown) [Example 24-2, [3-(4-Chloro-2-methoxy-phenyl)-2,5-dimethyl-pyrazolo[1,5-a]pyrimidin-7-yl]-[1-(3-methyl-[1,2,4]oxadiazol-5-yl)-propyl]-amine]	< 100	
COc1ccc(-c2c(C)nn3c(N[C@H](C)Cc4nc(C5CC5)no4)cc(C)nc23)c(C)c1 [Example 11-9, [2-(3-Cyclopropyl-[1,2,4]oxadiazol-5-yl)-(R)-1-methyl-ethyl]-[3-(4-methoxy-2-methyl-phenyl)-2,5-dimethyl-pyrazolo[1,5-a]pyrimidin-7-yl]-amine]	< 100	
CCC[C@H](Nc1cc(C)nc2c(-c3ccc(OC)cc3C)c(C)nn12)c1nc(C)no1 [Example 13-1, [3-(4-Methoxy-2-methyl-phenyl)-2,5-dimethyl-pyrazolo[1,5-a]pyrimidin-7-yl]-[(S)-1-(3-methyl-[1,2,4]oxadiazol-5-yl)-butyl]-amine]	< 100	
COc1ccc(-c2c(C)nn3c(N[C@@H](Cc4nc(C)no4)C(F)(F)F)cc(C)nc23)c(OC)c1 [Example 13-8, [3-(2,4-Dimethoxy-phenyl)-2,5-dimethyl-pyrazolo[1,5-a]pyrimidin-7-yl]-[2,2,2-trifluoro-(S)-1-(3-methyl-[1,2,4]oxadiazol-5-ylmethyl)-ethyl]-amine]	< 100	
COc1ccc(-c2c(C)nn3c(N[C@H](C)Cc4nc(C(F)(F)F)no4)cc(C)nc23)c(C)c1 [Example 13-5, [3-(4-Methoxy-2-methyl-phenyl)-2,5-dimethyl-pyrazolo[1,5-a]pyrimidin-7-yl]-[(R)-1-methyl-2-(3-trifluoromethyl-[1,2,4]oxadiazol-5-yl)-ethyl]-amine]	< 100	
COc1ccc(-c2c(C)nn3c(NCc4nc(C)no4)cc(C)nc23)c(C)c1 [Example 11-6, [3-(4-Methoxy-2-methyl-phenyl)-2,5-dimethyl-pyrazolo[1,5-a]pyrimidin-7-yl]-(3-methyl-[1,2,4]oxadiazol-5-ylmethyl)-amine]		< 100
COc1ccc(-c2c(C)nn3c(NC(C)Cc4nc(C5CC5)no4)cc(C)nc23)c(C)c1 (stereo not shown) [Example 12-4, [2-(3-Cyclopropyl-[1,2,4]oxadiazol-5-yl)-1-methyl-ethyl]-[3-(4-methoxy-2-methyl-phenyl)-2,5-dimethyl-pyrazolo[1,5-a]pyrimidin-7-yl]-amine]	< 100	
COc1ccc(-c2c(C)nn3c(N[C@H](C)Cc4noc(C5CC5)n4)cc(C)nc23)c(C)c1 [Example 18-1, [(R)-2-(5-Cyclopropyl-[1,2,4]oxadiazol-3-yl)-1-methyl-ethyl]-[3-(4-methoxy-2-methyl-phenyl)-2,5-dimethyl-pyrazolo[1,5-a]pyrimidin-7-yl]-amine]	< 100	
CC[C@@H](Cc1noc(C)n1)Nc1cc(C)nc2c(-c3ccc(OC)cc3C)c(C)nn12 [Example 17-2, [3-(4-Methoxy-2-methyl-phenyl)-2,5-dimethyl-pyrazolo[1,5-a]pyrimidin-7-yl]-[(S)-1-(5-methyl-[1,2,4]oxadiazol-3-ylmethyl)-propyl]-amine]	< 100	

More lines, now with the values ahead:

Ki [1] [nM]	Ki [nM]	SMILES
< 100		COc1ccc(-c2c(C)nn3c(NC(Cc4ccccc4)c4nc(C)no4)cc(C)nc23)c(C)c1 (stereo not shown) [Example 11-3, [3-(4-Methoxy-2-methyl-phenyl)-2,5-dimethyl-pyrazolo[1,5-a]pyrimidin-7-yl]-[1-(3-methyl-[1,2,4]oxadiazol-5-yl)-2-phenyl-ethyl]-amine]
< 100		COc1ccc(-c2c(C)nn3c(N[C@@H](Cc4nc(C)no4)C(F)(F)F)cc(C)nc23)c(Cl)c1 [Example 13-4, [3-(2-Chloro-4-methoxy-phenyl)-2,5-dimethyl-pyrazolo[1,5-a]pyrimidin-7-yl]-[2,2,2-trifluoro-(S)-1-(3-methyl-[1,2,4]oxadiazol-5-ylmethyl)-ethyl]-amine]
< 100		CCC(Cc1nc(C)no1)Nc1cc(C)nc2c(-c3ccc(OC)cc3OC)c(C)nn12 (stereo not shown) [Example 12-11, [3-(2,4-Dimethoxy-phenyl)-2,5-dimethyl-pyrazolo[1,5-a]pyrimidin-7-yl]-[1-(3-methyl-[1,2,4]oxadiazol-5-ylmethyl)-propyl]-amine]
< 100		COc1ccc(-c2c(C)nn3c(NC(C)Cc4nc(C(F)(F)F)no4)cc(C)nc23)c(C)c1 (stereo not shown) [Example 13-3, [3-(4-Methoxy-2-methyl-phenyl)-2,5-dimethyl-pyrazolo[1,5-a]pyrimidin-7-yl]-[1-methyl-2-(3-trifluoromethyl-[1,2,4]oxadiazol-5-yl)-ethyl]-amine]
< 100		CCC(Nc1cc(C)nc2c(-c3ccc(OC)cc3C)c(C)nn12)c1nnco1 (stereo not shown) [Example 21-1, [3-(4-Methoxy-2-methyl-phenyl)-2,5-dimethyl-pyrazolo[1,5-a]pyrimidin-7-yl]-(1-[1,3,4]oxadiazol-2-yl-propyl)-amine]
< 100		CC[C@H](Cc1noc(C)n1)Nc1cc(C)nc2c(-c3ccc(OC)cc3C)c(C)nn12 [Example 17-3, [3-(4-Methoxy-2-methyl-phenyl)-2,5-dimethyl-pyrazolo[1,5-a]pyrimidin-7-yl]-[(R)-1-(5-methyl-[1,2,4]oxadiazol-3-ylmethyl)-propyl]-amine]
< 100		COc1ccc(-c2c(C)nn3c(N[C@@H](Cc4noc(C)n4)C(F)(F)F)cc(C)nc23)c(C)c1 [Example 19-1, [3-(4-Methoxy-2-methyl-phenyl)-2,5-dimethyl-pyrazolo[1,5-a]pyrimidin-7-yl]-[(S)-2,2,2-trifluoro-1-(5-methyl-[1,2,4]oxadiazol-3-ylmethyl)-ethyl]-amine]
< 100		COCCN(Cc1nc(C)no1)c1cc(C)nc2c(-c3ccc(OC)cc3OC)c(C)nn12 [Example 15-1, [3-(2,4-Dimethoxy-phenyl)-2,5-dimethyl-pyrazolo[1,5-a]pyrimidin-7-yl]-(2-methoxy-ethyl)-(3-methyl-[1,2,4]oxadiazol-5-ylmethyl)-amine]
